Source: publication PMC10247784, “Physiological activation of human and mouse bitter taste receptors by bile acids” (Communications Biology, 2023)

Molecular target: T1, mouse Tas2r108 (Mus musculus, UniProt Q9JKT3)
T1 construct: expressed in transfected cells; host or cells: HEK293T-Gα16gust44
T1 sequence (Q9JKT3 1-297): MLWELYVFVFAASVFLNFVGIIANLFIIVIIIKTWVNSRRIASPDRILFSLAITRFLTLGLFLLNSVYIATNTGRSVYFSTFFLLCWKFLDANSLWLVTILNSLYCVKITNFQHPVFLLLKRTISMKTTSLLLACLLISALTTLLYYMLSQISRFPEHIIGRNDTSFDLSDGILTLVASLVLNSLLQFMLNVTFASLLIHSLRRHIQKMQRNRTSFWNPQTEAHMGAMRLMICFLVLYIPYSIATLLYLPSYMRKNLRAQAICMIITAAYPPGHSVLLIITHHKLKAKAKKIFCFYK
Test: Calcium imaging assay (FLIPR), HEK293T-Gα16gust44 cells transfected with mouse Tas2r108
Assay type: cell-based
Outline: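 Bile acids from DMSO stocks are applied to dye-loaded cells one day after transient receptor transfection, and calcium-dependent fluorescence is recorded. Maximum signal is standardized to basal and normalized to buffer-only wells, with empty-vector signal subtracted.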

Question: Which results are given for C[C@H](CCC(=O)O)[C@H]1CC[C@H]2[C@@H]3CC[C@@H]4C[C@H](O)CC[C@]4(C)[C@H]3C[C@H](O)[C@]12C [Deoxycholic Acid, deoxycholic acid]?
Answer: RLU (Time 0 s): 0 RLU; RLU (Time 2 s): 10.4901 RLU; RLU (Time 4 s): 7.695 RLU; RLU (Time 6 s): 13.3996 RLU; RLU (Time 8 s): 21.0752 RLU; RLU (Time 12 s): 15.5762 RLU; RLU (Time 14 s): 3.43 RLU; RLU (Time 16 s): -9.281 RLU; RLU (Time 18 s): 0.8467 RLU; RLU (Time 137.562 s): 460.71 RLU; RLU (Time 143.562 s): 496.814 RLU; RLU (Time 149.562 s): 503.436 RLU; RLU (Time 155.562 s): 499.263 RLU; RLU (Time 161.562 s): 506.022 RLU; RLU (Time 167.562 s): 509.176 RLU; RLU (Time 173.562 s): 514.108 RLU; RLU (Time 179.562 s): 522.581 RLU; RLU (Time 185.562 s): 531.86 RLU; RLU (Time 191.562 s): 528.694 RLU; RLU (Time 197.562 s): 533.421 RLU; RLU (Time 203.562 s): 538.761 RLU; RLU (Time 209.562 s): 521.511 RLU; RLU (Time 215.562 s): 533.378 RLU; RLU (Time 221.562 s): 492.546 RLU; RLU (Time 227.562 s): 477.486 RLU; RLU (Time 233.562 s): 488.911 RLU; RLU (Time 239.562 s): 493.745 RLU; RLU (Time 245.562 s): 495.953 RLU; RLU (Time 293.562 s): 458.186 RLU; RLU (Time 299.562 s): 441.037 RLU; RLU (Time 305.562 s): 416.756 RLU; RLU (Time 311.562 s): 430.852 RLU; RLU (Time 317.562 s): 450.794 RLU; RLU (Time 323.562 s): 427.048 RLU; RLU (Time 329.562 s): 431.797 RLU; RLU (Time 335.562 s): 432.3 RLU; RLU (Time 341.562 s): 422.32 RLU; RLU (Time 347.562 s): 429.258 RLU; RLU (Time 353.562 s): 427.233 RLU; RLU (Time 359.562 s): 399.693 RLU; Activation threshold concentration Tas2r108 (p < 0.01 vs empty vector): 10 µM; RLU (time 18.797 s): 15.4 RLU; RLU (time 20.797 s): -4.333 RLU; RLU (time 22.797 s): -28.7534 RLU; RLU (time 24.797 s): -22.8768 RLU; RLU (time 26.797 s): 16.5718 RLU; RLU (time 28.797 s): 18.9437 RLU; RLU (time 30.797 s): 58.8166 RLU; RLU (time 32.797 s): 83.6402 RLU; RLU (time 34.797 s): 79.9664 RLU; RLU (time 36.797 s): 112.495 RLU; RLU (time 38.797 s): 144 RLU; RLU (time 40.797 s): 169.562 RLU; RLU (time 42.797 s): 181.196 RLU; RLU (time 44.797 s): 204.676 RLU; RLU (time 46.797 s): 240.06 RLU; RLU (time 48.797 s): 220.167 RLU; RLU (time 50.797 s): 217.063 RLU; RLU (time 52.797 s): 250.29 RLU; RLU (time 54.797 s): 263.514 RLU; RLU (time 56.797 s): 298.678 RLU; RLU (time 58.797 s): 286.664 RLU; RLU (time 60.797 s): 326.636 RLU; RLU (time 62.797 s): 300.232 RLU; RLU (time 64.797 s): 322.977 RLU; RLU (time 66.797 s): 299.438 RLU; RLU (time 68.797 s): 333.279 RLU; RLU (time 70.797 s): 356.797 RLU; RLU (time 72.797 s): 351.722 RLU; RLU (time 74.797 s): 354.974 RLU; RLU (time 76.797 s): 350.201 RLU; RLU (time 78.797 s): 373.335 RLU; RLU (time 80.797 s): 363.865 RLU; RLU (time 82.797 s): 378.202 RLU; RLU (time 84.797 s): 377.793 RLU; RLU (time 86.797 s): 374.495 RLU; RLU (time 88.797 s): 427.432 RLU; RLU (time 90.797 s): 391.234 RLU; RLU (time 92.797 s): 431.574 RLU; RLU (time 94.797 s): 429.345 RLU; RLU (time 96.797 s): 437.253 RLU; RLU (time 98.797 s): 431.746 RLU; RLU (time 100.797 s): 440.351 RLU; RLU (time 102.797 s): 434.297 RLU; RLU (time 104.797 s): 432.91 RLU; RLU (time 106.797 s): 451.262 RLU; RLU (time 108.797 s): 460.201 RLU; RLU (time 110.797 s): 466.157 RLU; RLU (time 112.797 s): 486.092 RLU; RLU (time 114.797 s): 411.046 RLU; RLU (time 116.797 s): 482.073 RLU; RLU (time 118.797 s): 468.374 RLU; RLU (time 120.797 s): 468.931 RLU; RLU (time 122.797 s): 478.657 RLU; RLU (time 124.797 s): 472.922 RLU; RLU (time 126.797 s): 476.391 RLU; RLU (time 128.797 s): 502.505 RLU; RLU (time 130.797 s): 473.229 RLU; RLU (time 132.797 s): 511.515 RLU; RLU (time 134.797 s): 493.882 RLU; RLU (time 136.797 s): 440.117 RLU

Question: With C[C@H](CCC(=O)O)[C@H]1CC[C@H]2[C@@H]3[C@@H](O)C[C@@H]4C[C@H](O)CC[C@]4(C)[C@H]3CC[C@]12C [Ursodeoxycholic Acid, ursodeoxycholic acid] as the compound, how does the “Receptor response Tas2r108” value (screening) read?
Answer: does not respond
